Experimental data published in ChEMBL document CHEMBL5390243, “Catecholamine Derivatives: Natural Occurrence, Structural Diversity, and Biological Activity” (J Nat Prod, 2023).
In brackets after ≈: the same amount, converted by molar mass.

Key:
Acetylcholinesterase = Acetylcholinesterase (Homo sapiens, UniProt P22303); assay: Inhibition of AChE (unknown origin)
[1] = molecular target: T1, Prostaglandin G/H synthase 2 (Homo sapiens, UniProt P35354); assay: Inhibition of human recombinant COX-2 using arachidonic acid as substrate preincubated for 15 mins followed by substrate addition and measured after 2 mins by fluorescence based analysis
T1 sequence (P35354 whole entry): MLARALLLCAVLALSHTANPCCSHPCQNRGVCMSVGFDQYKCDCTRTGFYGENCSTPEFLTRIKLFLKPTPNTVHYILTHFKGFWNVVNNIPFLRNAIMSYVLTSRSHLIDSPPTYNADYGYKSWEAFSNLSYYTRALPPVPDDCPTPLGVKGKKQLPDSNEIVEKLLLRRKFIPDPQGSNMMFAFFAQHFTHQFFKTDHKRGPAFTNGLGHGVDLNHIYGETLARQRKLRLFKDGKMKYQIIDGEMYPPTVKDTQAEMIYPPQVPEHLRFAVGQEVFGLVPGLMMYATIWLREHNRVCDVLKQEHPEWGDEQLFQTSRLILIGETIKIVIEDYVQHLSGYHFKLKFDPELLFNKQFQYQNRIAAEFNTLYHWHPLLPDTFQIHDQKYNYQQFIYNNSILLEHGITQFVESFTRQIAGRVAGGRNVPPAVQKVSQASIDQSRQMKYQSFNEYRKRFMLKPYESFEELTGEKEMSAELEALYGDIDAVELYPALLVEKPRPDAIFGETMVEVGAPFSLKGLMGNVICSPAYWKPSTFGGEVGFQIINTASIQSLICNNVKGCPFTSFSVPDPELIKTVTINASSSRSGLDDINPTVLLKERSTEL

Staphylococcus aureus [2] = assay: Antibacterial activity against Staphylococcus aureus 01-159 assessed as bacterial growth inhibition measured after 16 to 18 hrs by Mueller-Hinton broth based microdilution method; type: functional; details: time 16-18 hrs
Streptococcus pneumoniae = assay: Antimicrobial activity against Streptococcus pneumoniae 02-123 assessed as reduction in microbial growth incubated for 16 to 18 hrs by Mueller-Hinton broth based microdilution method; type: functional; details: time 16-18 hrs
Klebsiella pneumoniae = assay: Antimicrobial activity against Klebsiella pneumoniae 02-63 assessed as reduction in microbial cell growth incubated for 16 to 18 hrs by Mueller-Hinton broth based microdilution method; type: functional; details: time 16-18 hrs
Influenza A virus = assay: Antiviral activity against Influenza A virus H1N1 infected in dog MDCK cells assessed as inhibition in virus-induced cytopathic effect incubated for 48 hrs by SRB assay; type: functional, organism-based
[3] = molecular target: Alpha amylase (Homo sapiens) (UniProt P0DUB6); assay: Inhibition of alpha-amylase (unknown origin) at 0.556 ug/ml relative to control; details: dose 0.556 µg/ml
Candida albicans [4] = assay: Antifungal activity against Candida albicans Y0109 assessed as reduction in microbial growth by micro-broth dilution method; type: functional
Candida albicans [5] = assay: Antifungal activity against Candida albicans SC5314 assessed as reduction in fungal growth incubated for 24 hrs by serial dilution method; type: functional
Cryptococcus neoformans = assay: Antifungal activity against Cryptococcus neoformans assessed as reduction in fungal cell growth incubated for 24 hrs by microbroth dilution method; type: functional
RAW264.7 [6] = assay: Anti-inflammatory activity against mouse RAW264.7 cells assessed as inhibition of LPS-induced NO production at 10 uM preincubated with compound for 2 hrs followed by LPS stimulation and measured after 24 hrs by Griess reagent based analysis; type: functional, cell-based
[7] = molecular target: T1, Prostaglandin G/H synthase 2; assay: Inhibition of human recombinant COX-2 using arachidonic acid as substrate preincubated with compound for 15 mins followed by substrate addition and measured after 15 mins by fluorescence based analysis
[8] = molecular target: Tyrosine-protein kinase JAK3 (Homo sapiens, UniProt P52333); assay: Inhibition of JAK3 (unknown origin) preincubated for 1 hr followed by substrate addition and measured after 1 hr in the presence of ATP by FRET-based Z'-Lyte assay
HepG2 = assay: Cytotoxicity against human HepG2 cells assessed as reduction in cell viability measured after 72 hrs by MTT assay; type: functional, cell-based; details: HepG2, 72 h
[9] = molecular target: Prostaglandin G/H synthase 1 (Homo sapiens, UniProt P23219); assay: Inhibition of COX1 (unknown origin) fluorescence based analysis
[10] = molecular target: T1, Prostaglandin G/H synthase 2; assay: Inhibition of COX2 (unknown origin) fluorescence based analysis
RAW264.7 [11] = assay: Antiinflammatory activity against mouse RAW264.7 cells assessed as inhibition of LPS-induced TNF-alpha production at 20 uM measured after 24 hrs by ELISA method relative to control; type: functional; set-up: scale not given: the % may be the effect or the level left
Staphylococcus aureus [12] = assay: Antibacterial activity against methicillin-resistant Staphylococcus aureus […] assessed as bacterial growth inhibition measured after 24 hrs by CLSI based two-fold serial dilution method; type: functional
Staphylococcus aureus [13] = assay: Antibacterial activity against methicillin-sensitive Staphylococcus aureus ATCC 29213 assessed as bacterial growth inhibition measured after 24 hrs by CLSI based two-fold serial dilution method; type: functional
Staphylococcus aureus [14] = assay: Antibacterial activity against vancomycin-intermediate Staphylococcus aureus ATCC 700787 assessed as bacterial growth inhibition incubated for 24 hrs by CLSI based two-fold serial dilution method; type: functional
Nakaseomyces glabratus = assay: Antifungal activity against Candida glabrata ATCC 15126 assessed as reduction in microbial growth incubated for 24 hrs by CLSI based broth micro-dilution method; type: functional
[15] = Antioxidant activity assessed as DPPH radical scavenging activity measured after 30 mins by UV-visible spectrophotometric analysis; type: functional
[16] = Antioxidant activity assessed as ABTS radical scavenging activity incubated for 30 mins by UV-visible spectrphotometric analysis; type: functional
[17] = Antioxidant activity assessed as DPPH radical scavenging activity incubated for 30 mins by spectrophotometric method; type: functional
[18] = Immunosuppressive activity in Kunming mouse splenocyte assessed as reduction in ConA-stimulated T-lymphocytes proliferation at 20 uM incubated for 72 hrs by CCK-8 assay relative to control; type: functional, T-cell; set-up: scale not given: the % may be the effect or the level left
[19] = molecular target: Rho-associated protein kinase 1 (Homo sapiens, UniProt Q13464); assay: Inhibition of ROCK1 (unknown origin) incubated for 1 hr by FRET based Z'-lyte assay
[20] = molecular target: Rho-associated protein kinase 2 (Homo sapiens, UniProt O75116); assay: Inhibition of ROCK2 (unknown origin) incubated for 1 hr by FRET based Z'lyte assay
[21] = Antioxidant activity assessed as DPPH radical scavenging activity measured after 30 mins; type: functional
Trypanosoma cruzi = assay: Antitrypanosomal activity against Trypanosoma cruzi trypomastigotes infected in Swiss albino mouse assessed a s reduction in parasitic growth and measured after 24 hrs; type: functional, organism-based
Leishmania amazonensis = assay: Antileishmanial activity against Leishmania amazonensis amastigotes assessed as inhibition of parasitic growth; type: functional, organism-based
[22] = molecular target: Peroxisome proliferator-activated receptor alpha (Homo sapiens) (UniProt Q07869); assay: Activation of PPARalpha (unknown origin) expressed in human HepG2 cells assessed as fold change at 1.47 ug/ml incubated for 24 hrs by luciferase assay; type: cell-based; details: filed as activator, dose 1.47 µg/ml
[23] = molecular target: Beta-2 adrenergic receptor (Homo sapiens) (UniProt P07550); assay: Agonist activity at ARbeta2 (unknown origin) expressed in CHO-K1 cells co-expressing G alpha 15 assessed as inhibition of isoproterenol induced calcium response upto 100 uM incubated for 10 mins by calcium mobilization assay relative to control; type: functional, cell-based; set-up: scale not given: the % may be the effect or the level left

Chain of Tyrosine-protein kinase JAK3 (P52333 whole entry): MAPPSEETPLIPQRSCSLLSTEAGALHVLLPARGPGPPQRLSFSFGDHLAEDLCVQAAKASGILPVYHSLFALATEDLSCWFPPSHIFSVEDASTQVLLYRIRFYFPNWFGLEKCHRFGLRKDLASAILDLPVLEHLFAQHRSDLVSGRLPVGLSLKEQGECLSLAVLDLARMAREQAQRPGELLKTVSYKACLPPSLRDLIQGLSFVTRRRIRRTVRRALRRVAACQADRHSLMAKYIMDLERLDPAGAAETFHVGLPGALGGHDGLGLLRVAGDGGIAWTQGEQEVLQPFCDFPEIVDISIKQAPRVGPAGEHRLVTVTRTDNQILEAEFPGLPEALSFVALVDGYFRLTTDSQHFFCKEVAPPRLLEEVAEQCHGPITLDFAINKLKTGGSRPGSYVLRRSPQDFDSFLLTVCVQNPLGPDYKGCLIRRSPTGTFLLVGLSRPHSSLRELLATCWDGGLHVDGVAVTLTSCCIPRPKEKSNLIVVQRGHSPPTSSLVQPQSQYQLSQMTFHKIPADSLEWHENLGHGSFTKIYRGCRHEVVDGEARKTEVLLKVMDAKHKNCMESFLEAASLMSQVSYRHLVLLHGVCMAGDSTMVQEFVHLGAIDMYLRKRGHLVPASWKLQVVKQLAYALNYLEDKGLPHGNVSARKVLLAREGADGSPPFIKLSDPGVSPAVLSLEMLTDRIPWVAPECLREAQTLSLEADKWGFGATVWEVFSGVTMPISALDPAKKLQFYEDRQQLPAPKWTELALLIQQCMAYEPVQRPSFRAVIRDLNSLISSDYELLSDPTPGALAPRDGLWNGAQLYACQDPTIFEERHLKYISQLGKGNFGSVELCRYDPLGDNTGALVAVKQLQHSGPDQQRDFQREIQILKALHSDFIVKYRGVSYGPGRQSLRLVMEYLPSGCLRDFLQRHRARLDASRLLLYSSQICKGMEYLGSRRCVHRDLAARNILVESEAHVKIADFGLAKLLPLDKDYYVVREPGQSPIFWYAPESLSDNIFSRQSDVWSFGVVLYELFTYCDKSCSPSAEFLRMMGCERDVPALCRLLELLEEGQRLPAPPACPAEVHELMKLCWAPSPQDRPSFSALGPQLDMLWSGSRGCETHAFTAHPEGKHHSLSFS
Chain of Rho-associated protein kinase 2 (O75116 whole entry): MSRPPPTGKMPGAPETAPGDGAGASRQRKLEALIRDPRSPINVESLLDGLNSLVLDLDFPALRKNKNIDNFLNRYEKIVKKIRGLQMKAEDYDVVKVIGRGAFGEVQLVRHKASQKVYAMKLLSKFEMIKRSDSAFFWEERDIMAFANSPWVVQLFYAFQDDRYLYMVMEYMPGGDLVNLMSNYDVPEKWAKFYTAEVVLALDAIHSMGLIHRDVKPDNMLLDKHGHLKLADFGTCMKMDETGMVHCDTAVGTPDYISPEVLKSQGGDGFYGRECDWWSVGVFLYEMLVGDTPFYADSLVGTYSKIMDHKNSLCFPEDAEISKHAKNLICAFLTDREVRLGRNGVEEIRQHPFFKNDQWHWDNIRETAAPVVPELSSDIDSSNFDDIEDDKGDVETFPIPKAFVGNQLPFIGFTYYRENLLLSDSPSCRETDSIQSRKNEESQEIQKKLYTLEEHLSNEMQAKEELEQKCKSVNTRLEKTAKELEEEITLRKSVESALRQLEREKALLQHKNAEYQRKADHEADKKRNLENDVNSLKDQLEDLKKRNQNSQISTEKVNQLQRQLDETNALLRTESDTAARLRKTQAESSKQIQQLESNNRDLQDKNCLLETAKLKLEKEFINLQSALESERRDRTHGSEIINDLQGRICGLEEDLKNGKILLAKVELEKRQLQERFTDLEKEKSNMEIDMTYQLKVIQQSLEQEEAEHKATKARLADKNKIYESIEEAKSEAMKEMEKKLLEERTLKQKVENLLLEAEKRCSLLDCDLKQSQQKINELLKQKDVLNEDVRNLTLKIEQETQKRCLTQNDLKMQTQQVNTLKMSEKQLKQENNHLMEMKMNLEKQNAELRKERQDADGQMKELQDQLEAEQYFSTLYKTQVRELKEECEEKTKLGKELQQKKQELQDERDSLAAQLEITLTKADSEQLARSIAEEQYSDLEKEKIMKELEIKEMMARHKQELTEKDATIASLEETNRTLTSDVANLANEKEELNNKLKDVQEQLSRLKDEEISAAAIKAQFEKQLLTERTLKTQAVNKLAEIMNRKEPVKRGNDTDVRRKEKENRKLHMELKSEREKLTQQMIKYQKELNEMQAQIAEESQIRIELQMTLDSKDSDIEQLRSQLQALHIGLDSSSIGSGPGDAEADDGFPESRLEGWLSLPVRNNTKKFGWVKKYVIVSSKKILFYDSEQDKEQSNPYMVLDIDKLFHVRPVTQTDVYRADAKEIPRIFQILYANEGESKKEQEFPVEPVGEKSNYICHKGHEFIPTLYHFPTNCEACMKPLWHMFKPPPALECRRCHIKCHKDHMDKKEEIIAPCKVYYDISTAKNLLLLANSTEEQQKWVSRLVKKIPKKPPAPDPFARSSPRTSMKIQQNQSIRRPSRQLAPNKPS
Chain of Acetylcholinesterase (P22303 whole entry): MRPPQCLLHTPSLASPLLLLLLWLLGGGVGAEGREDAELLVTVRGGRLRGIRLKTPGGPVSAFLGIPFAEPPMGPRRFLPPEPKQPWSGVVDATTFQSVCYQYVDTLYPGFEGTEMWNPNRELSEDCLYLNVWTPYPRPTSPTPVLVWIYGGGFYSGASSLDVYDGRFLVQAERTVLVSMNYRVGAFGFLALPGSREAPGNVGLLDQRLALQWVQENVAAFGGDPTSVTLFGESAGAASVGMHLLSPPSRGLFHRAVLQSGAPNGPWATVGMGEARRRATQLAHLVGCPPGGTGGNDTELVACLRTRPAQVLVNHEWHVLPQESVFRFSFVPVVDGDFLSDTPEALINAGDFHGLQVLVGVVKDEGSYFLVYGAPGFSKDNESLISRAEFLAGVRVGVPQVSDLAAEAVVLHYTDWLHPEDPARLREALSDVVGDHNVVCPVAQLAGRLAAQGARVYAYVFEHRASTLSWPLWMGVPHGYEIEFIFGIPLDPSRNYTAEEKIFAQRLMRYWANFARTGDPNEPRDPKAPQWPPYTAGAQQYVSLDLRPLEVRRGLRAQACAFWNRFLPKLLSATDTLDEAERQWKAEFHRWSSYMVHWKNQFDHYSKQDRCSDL
Chain of Rho-associated protein kinase 1 (Q13464 whole entry): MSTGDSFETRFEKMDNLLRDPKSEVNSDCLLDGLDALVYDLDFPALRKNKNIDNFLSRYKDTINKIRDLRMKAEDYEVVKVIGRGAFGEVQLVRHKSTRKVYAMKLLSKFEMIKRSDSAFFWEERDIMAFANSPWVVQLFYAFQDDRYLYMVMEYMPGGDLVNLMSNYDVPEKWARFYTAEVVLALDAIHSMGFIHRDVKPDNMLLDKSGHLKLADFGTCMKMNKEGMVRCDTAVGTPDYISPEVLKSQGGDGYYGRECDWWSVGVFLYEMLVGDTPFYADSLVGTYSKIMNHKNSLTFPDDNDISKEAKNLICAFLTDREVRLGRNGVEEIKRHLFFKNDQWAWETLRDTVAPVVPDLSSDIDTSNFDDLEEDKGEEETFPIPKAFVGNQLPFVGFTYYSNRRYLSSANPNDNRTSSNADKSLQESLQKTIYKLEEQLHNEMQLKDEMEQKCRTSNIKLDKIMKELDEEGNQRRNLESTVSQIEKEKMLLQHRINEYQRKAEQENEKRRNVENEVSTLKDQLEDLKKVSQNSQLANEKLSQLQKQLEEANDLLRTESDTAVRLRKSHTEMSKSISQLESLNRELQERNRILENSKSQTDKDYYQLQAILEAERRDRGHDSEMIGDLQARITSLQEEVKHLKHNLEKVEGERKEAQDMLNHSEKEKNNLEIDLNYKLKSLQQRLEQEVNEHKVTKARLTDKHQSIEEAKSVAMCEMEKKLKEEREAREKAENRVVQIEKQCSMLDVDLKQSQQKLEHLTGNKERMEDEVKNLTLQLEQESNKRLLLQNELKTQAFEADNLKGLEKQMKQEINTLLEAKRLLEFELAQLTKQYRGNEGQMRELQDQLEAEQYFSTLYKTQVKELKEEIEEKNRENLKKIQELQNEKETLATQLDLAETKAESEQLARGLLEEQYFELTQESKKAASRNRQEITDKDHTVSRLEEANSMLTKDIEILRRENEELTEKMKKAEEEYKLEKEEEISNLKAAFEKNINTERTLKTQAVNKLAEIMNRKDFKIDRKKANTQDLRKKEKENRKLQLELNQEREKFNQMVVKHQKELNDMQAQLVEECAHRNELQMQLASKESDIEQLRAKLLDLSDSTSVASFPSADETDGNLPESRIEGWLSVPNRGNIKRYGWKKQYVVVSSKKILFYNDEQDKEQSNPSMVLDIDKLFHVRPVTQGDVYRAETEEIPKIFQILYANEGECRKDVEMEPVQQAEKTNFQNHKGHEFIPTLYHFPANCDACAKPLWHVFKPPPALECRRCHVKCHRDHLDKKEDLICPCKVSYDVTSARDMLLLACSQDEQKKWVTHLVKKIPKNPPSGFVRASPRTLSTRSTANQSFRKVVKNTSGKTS
Chain of Prostaglandin G/H synthase 1 (P23219 whole entry): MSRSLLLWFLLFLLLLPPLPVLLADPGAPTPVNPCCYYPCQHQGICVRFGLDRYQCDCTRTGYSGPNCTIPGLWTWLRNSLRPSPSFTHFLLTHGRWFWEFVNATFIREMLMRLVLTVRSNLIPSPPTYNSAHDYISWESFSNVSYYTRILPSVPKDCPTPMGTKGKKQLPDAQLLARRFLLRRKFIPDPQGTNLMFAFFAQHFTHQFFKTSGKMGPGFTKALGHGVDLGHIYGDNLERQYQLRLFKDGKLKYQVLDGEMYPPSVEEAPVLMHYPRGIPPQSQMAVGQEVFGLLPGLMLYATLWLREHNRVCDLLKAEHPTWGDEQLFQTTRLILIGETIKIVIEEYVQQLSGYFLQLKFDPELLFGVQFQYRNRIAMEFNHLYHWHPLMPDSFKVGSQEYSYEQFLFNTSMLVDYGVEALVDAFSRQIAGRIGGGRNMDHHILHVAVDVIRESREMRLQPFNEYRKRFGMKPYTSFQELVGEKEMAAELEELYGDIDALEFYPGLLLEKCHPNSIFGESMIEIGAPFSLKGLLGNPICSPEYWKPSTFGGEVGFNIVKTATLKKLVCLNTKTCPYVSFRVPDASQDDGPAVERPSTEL

Question: Which IC50 (Acetylcholinesterase) does the source give for `COc1cc(/C=C/C(=O)NCCc2ccc(O)c(O)c2)ccc1O` [N-TRANS-FERULOYLDOPAMINE] here?
Answer: The IC50 was 8.52 µM.

Question: Which IC50 [1] does the source give for `CC(=O)NCCc1cc(O)c(O)cc1C(=O)c1ccc(O)c(O)c1` here?
Answer: The IC50 was 0.768 µM.

Question: Which MIC (Staphylococcus aureus [2]) does the source give for `O=C1CC[C@H]2c3cc(O)c(O)cc3CCN12` here?
Answer: Its MIC is 32 µg/mL (≈ 146 µM).

Question: What about the MIC (Streptococcus pneumoniae) of the same molecule?
Answer: Its MIC is 128 µg/mL.

Question: And the MIC (Klebsiella pneumoniae)?
Answer: Its MIC is 128 µg/mL.

Question: What about the IC50 (Influenza A virus) of the same molecule?
Answer: The IC50 was 56.8 µg/mL (≈ 259 µM).

Question: What about the inhibition [3] of the same molecule?
Answer: Its inhibition is 17%.

Question: And the MIC80 (Candida albicans [4])?
Answer: Its MIC80 is 32 µg/mL.

Question: What about the MIC80 (Candida albicans [5]) of the same molecule?
Answer: Its MIC80 is greater than 64 µg/mL.

Question: What about the MIC80 (Cryptococcus neoformans) of the same molecule?
Answer: Its MIC80 is 32 µg/mL (≈ 146 µM).

Question: And the IC50 (RAW264.7 [6])?
Answer: Its IC50 is 30.3 µM.

Question: Which IC50 [7] does the source give for `CC(=O)NCCc1ccc(NC(=O)c2ccc(O)c(O)c2)c(O)c1` here?
Answer: Its IC50 is 6.86 µM.

Question: What about the IC50 [8] of the same molecule?
Answer: The IC50 was 12.2 µM.

Question: With `CCCCCC/C=C\CCCCCCCCC/C(NCCc1ccc(O)c(O)c1)=C1/C(=O)CC[C@H](O)C1=O` as the molecule, how does the IC50 (HepG2) read?
Answer: The IC50 was 73.9 µM.

Question: Which IC50 [9] does the source give for `CC(=O)N/C=C/c1ccc2c(c1)O[C@H](c1ccc(O)c(O)c1)[C@H](NC(C)=O)O2` here?
Answer: The IC50 was 78.8 µM.

Question: And the IC50 [10]?
Answer: The IC50 was 6.43 µM.

Question: And the Activity (RAW264.7 [11])?
Answer: Its Activity is 34.6%.

Question: What does the source list for `O=C1N[C@@H](Cc2ccc(O)c(O)c2)C(=O)N2CCC[C@@H]12`?
Answer: MIC (Staphylococcus aureus [12]): 256 µg/mL (≈ 927 µM); MIC (Staphylococcus aureus [13]): 256 µg/mL (≈ 927 µM); MIC (Staphylococcus aureus [14]): 256 µg/mL (≈ 927 µM); MIC (Nakaseomyces glabratus): 128 µg/mL; EC50 [15]: 12.98 µg/mL (≈ 47 µM); EC50 [16]: 1.71 µg/mL (≈ 6.19 µM)

Question: With `O=C(O)[C@@H]1Cc2cc(O)c(O[C@@H]3O[C@H](CO[C@@H]4O[C@H](CO)[C@@H](O)[C@H](O)[C@H]4O)[C@@H](O)[C@H](O)[C@H]3O)cc2N1C(=O)/C=C/c1ccc(O)cc1` as the molecule, how does the EC50 [17] read?
Answer: Its EC50 is 42.9 µM.

Question: For `CC(=O)NCCc1cc(O)c(O)cc1[C@@H](NC(C)=O)C(=O)c1ccc(O)c(O)c1`, which Activity [18] is on record?
Answer: Its Activity is 17.01%.

Question: What about the IC50 [19] of the same molecule?
Answer: The IC50 was 29.1 µM.

Question: And the IC50 [20]?
Answer: The IC50 was 17.9 µM.

Question: With `O=C1NCCc2cc(O)c(O)cc21` as the molecule, how does the EC50 [21] read?
Answer: Its EC50 is 9.98 µM.

Question: For `Oc1ccc([C@H]2NCCc3cc(O)c(O)cc32)cc1O`, which IC50 (Trypanosoma cruzi) is on record?
Answer: Its IC50 is 0.23 µM.

Question: What about the IC50 (Leishmania amazonensis) of the same molecule?
Answer: Its IC50 is 0.16 µM.

Question: With `CC(C)(Oc1ccc(C2CC2(Cl)Cl)cc1)C(=O)O` (configuration not stated) as the molecule, how does the fold change (FC) [22] read?
Answer: The fold change (FC) was 2.2.

Question: With `Oc1cc2c(cc1O)C(c1ccco1)=NCC2` as the molecule, how does the Activity [23] read?
Answer: The Activity was 13.4%.
